Reference: patent US10098878B2, “HIF-2α inhibitors for treating iron overload disorders” (The Board of Regents of the University of Texas System, priority 2014, dated 2018)
pEC50, pIC50: −log10 of the molar value. Where two headings read alike, the source gives them in different places.

Columns and labels:
[1] = target: T1, HIF-2α HIS TAG-PASB Domain (Homo sapiens, UniProt Q99814); assay: HIF-2α Scintillation Proximity Assay (SPA); type: binding; details: 100 nM HIF-2α HIS TAG-PASB Domain
T1 construct: 100 nM HIF-2α HIS TAG-PASB Domain
T1 sequence (Q99814 240-350 limits assumed): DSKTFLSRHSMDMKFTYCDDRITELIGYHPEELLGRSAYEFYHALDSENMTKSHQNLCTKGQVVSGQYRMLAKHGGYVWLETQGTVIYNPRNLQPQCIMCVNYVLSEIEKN
Summary of the method: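 IC50 values rest on percent inhibition, where the sample signal is scaled between high and low controls. Wells contain about 100 μL: compound dispensed as 2 μL of DMSO solution, 88 μL protein-probe mix and 10 μL of beads.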

786-O-Hif-Luc cells = assay: Luciferase Assay; type: cell-based; details: read-out: Luciferase EC50
Description: A pool of infected cells were then selected against 2 μg/mL of puromycin (P8833, Sigma) for 10 days followed by limited dilution to select single clones.
Each concentration was tested in triplicate. After about 24 hours, luciferase activity was determined using ONE-Glo Luciferase Assay Reagent (E6110, Promega) following the manufacturer's recommended procedure. EC50 were calculated by using Dotmatics software.

[2] = 150 nM Compound 211 probe, read-out: SPA IC50
[3] = 24 h, 786-O-Hif-Luc cells, about 24 hours
[4] = 786-O-Hif-Luc cells, about 24 hours
[5] = SPA IC50, 150 nM Compound 211 probe

SMILES	pIC50 [1, 2]	pEC50 (786-O-Hif-Luc cells; [3])	also measured
CS(=N)(=O)c1ccc(Oc2cc(F)cc(F)c2)c2c1[C@H](O)C(F)(F)C2 (stereo partly drawn) [Compound 10, ((S)-7-(3,5-Difluorophenoxy)-2,2-difluoro-3-hydroxy-2,3-dihydro-1H-inden-4-yl)(imino)(methyl)-λ^6-sulfanone]	6.75	6.56	
Cc1cncc(Oc2ccc(S(C)(=O)=O)c3c2CC(F)(F)[C@H]3O)n1 [Compound 11, (S)-2,2-Difluoro-4-((6-methylpyrazin-2-yl)oxy)-7-(methylsulfonyl)-2,3-dihydro-1H-inden-1-ol]	> 8.30	4.87	
Cc1cc(Oc2cc(F)cc(C#N)c2)c2c(c1S(C)(=O)=O)C(O)C(F)(F)C2 (centres unmarked) [Compound 12, 3-((2,2-Difluoro-1-hydroxy-6-methyl-7-(methylsulfonyl)-2,3-dihydro-1H-inden-4-yl)oxy)-5-fluorobenzonitrile]	6.10	6.11	
O=S(=O)(CF)c1ccc(Oc2cccc3sccc23)c2c1C(O)C(F)(F)C2 (centres unmarked) [Compound 22, 4-(Benzo[b]thiophen-4-yloxy)-2,2-difluoro-7-((fluoromethyl)sulfonyl)-2,3-dihydro-1H-inden-1-ol]	6.64	6.29	
N#Cc1cncc(Oc2ccc(S(N)(=O)=O)c3c2CC(F)(F)[C@H]3O)c1 [Compound 25, (S)-7-((5-Cyanopyridin-3-yl)oxy)-2,2-difluoro-3-hydroxy-2,3-dihydro-1H-indene-4-sulfonamide]	4.75	5.96	
O=S(=O)(c1ccc(Oc2cc(Cl)c[n+]([O-])c2)c2c1[C@H](O)C(F)(F)C2)C(F)(F)F [Compound 28, (S)-3-Chloro-5-((2,2-difluoro-1-hydroxy-7-((trifluoromethyl)sulfonyl)-2,3-dihydro-1H-inden-4-yl)oxy)pyridine 1-oxide]	7.18	6.76	
N#Cc1cc(F)cc(Oc2ccc(S(=O)(=O)C(F)(F)F)c3c2CC(F)C3N)c1 (centres unmarked) [Compound 32, 3-((1-amino-2-fluoro-7-((trifluoromethyl)sulfonyl)-2,3-dihydro-1H-inden-4-yl)oxy)-5-fluorobenzonitrile]	5.45	5.61	
CS(=O)(=O)c1ccc(Oc2cc(F)cc(C#N)c2)c2c1C(=O)C(F)(Cl)C2 (centres unmarked) [Compound 33, 3-((2-chloro-2-fluoro-7-(methylsulfonyl)-1-oxo-2,3-dihydro-1H-inden-4-yl)oxy)-5-fluorobenzonitrile]	6.51	4.71	
CS(=O)(=O)c1ccc(Oc2cc(F)cc(C#N)c2)c2c1[C@H](O)C(F)(Cl)C2 (stereo partly drawn) [Compound 34, 3-(((1S)-2-chloro-2-fluoro-1-hydroxy-7-(methylsulfonyl)-2,3-dihydro-1H-inden-4-yl)oxy)-5-fluorobenzonitrile]	7.01	7.00	
C[S+]([O-])c1ccc(Oc2cc(F)cc(C#N)c2)c2c1[C@H](O)C(F)(F)C2 (stereo partly drawn) [Compound 36, 3-[(1S)-2,2-Difluoro-1-hydroxy-7-methylsulfinyl-indan-4-yl]oxy-5-fluoro-benzonitrile]	5.70	5.64	
N#Cc1cc(F)cc(Oc2ccc(S(=O)(=O)C(F)(F)F)c3c2CC(F)(F)[C@H]3NCCO)c1 [Compound 55, 3-[(1S)-2,2-difluoro-1-(2-hydroxyethylamino)-7-(trifluoromethylsulfonyl)indan-4-yl]oxy-5-fluoro-benzonitrile]	5.31	5.51	
CS(=O)(=O)c1ccc(Oc2cc(F)cc(C#N)c2)c2c1[C@H](O)C(F)(F)[C@H]2F [Compound 57, 3-fluoro-5-[(1S,3S)-2,2,3-trifluoro-1-hydroxy-7-methylsulfonyl-indan-4-yl]oxy-benzonitrile]	6.14		pEC50 (786-O-Hif-Luc cells; 24 h): 6.11
CS(=O)(=O)c1ccc(Oc2cc(F)cc(C#N)c2)c2c1[C@H](O)C[C@@H]2F [Compound 59, 3-fluoro-5-[(1R,3S)-3-fluoro-1-hydroxy-7-methylsulfonyl-indan-4-yl]oxy-benzonitrile]	6.64	6.41	
CS(=O)(=O)c1ccc(Oc2cc(F)cc(C#N)c2)c2c1[C@H](O)[C@H](F)[C@@H]2O [Compound 60, 3-fluoro-5-[(1S,2R,3R)-2-fluoro-1,3-dihydroxy-7-methylsulfonyl-indan-4-yl]oxy-benzonitrile]	5.87	5.88	
C[C@@]1(F)Cc2c(Oc3cc(F)cc(C#N)c3)ccc(S(C)(=O)=O)c2[C@@H]1O [Compound 64, 3-fluoro-5-(((1S,2R)-2-fluoro-1-hydroxy-2-methyl-7-(methylsulfonyl)-2,3-dihydro-1H-inden-4-yl)oxy)benzonitrile]	5.69	5.55	
N#Cc1c(Oc2cc(F)cc(Cl)c2)ccc2c1C(O)C(F)(F)S2(=O)=O (centres unmarked) [Compound 120, 5-(3-chloro-5-fluorophenoxy)-2,2-difluoro-3-hydroxy-2,3-dihydrobenzo[b]thiophene-4-carbonitrile 1,1-dioxide]			pIC50 [1, 5]: 7.35; pEC50 (786-O-Hif-Luc cells): 5.38
Cc1c(Oc2cc(F)cc(Cl)c2)ccc2c1C(O)C(F)(F)S2(=O)=O (centres unmarked) [Compound 123, 5-(3-Chloro-5-fluorophenoxy)-2,2-difluoro-3-hydroxy-4-methyl-2,3-dihydrobenzo[b]thiophene 1,1-dioxide]			pIC50 [1, 5]: 7.82; pEC50 (786-O-Hif-Luc cells): 6.35
[2H]C1(O)c2c(ccc(Oc3cc(F)cc(Cl)c3)c2C(F)F)S(=O)(=O)C1(F)F (centres unmarked) [Compound 135, 5-(3-Chloro-5-fluorophenoxy)-4-(difluoromethyl)-2,2-difluoro-3-hydroxy-2,3-dihydrobenzo[b]thiophene 1,1-dioxide-3-d]			pIC50 [1, 5]: > 8.30; pEC50 (786-O-Hif-Luc cells; [4]): 8.00

Continued, in another order:

pIC50 [1, 2]	pEC50 (786-O-Hif-Luc cells; [3])	SMILES	also measured
5.39	6.26	N=S1(=O)c2ccc(Oc3cc(F)cc(F)c3)c(Br)c2C(O)C1(F)F (single isomer, unassigned) [Compound 141, 4-Bromo-5-(3,5-difluorophenoxy)-2,2-difluoro-3-hydroxy-1-imino-2,3-dihydro-1H-1λ^4-benzo[b]thiophene 1-oxide]	
6.62		N=S1(=O)c2ccc(Oc3cc(F)cc(F)c3)c(Br)c2C(O)C1(F)F (single isomer, unassigned) [Compound 142, 4-bromo-5-(3,5-difluorophenoxy)-2,2-difluoro-3-hydroxy-1-imino-2,3-dihydro-1H-1λ^4-benzo[b]thiophene 1-oxide]	pEC50 (786-O-Hif-Luc cells; [4]): 6.54
5.73	5.68	C[C@@H]1Cc2c(Oc3cc(F)cc(C#N)c3)ccc(S(C)(=O)=O)c2[C@@H]1O [Compound 65, 3-fluoro-5-(((1R,2R)-1-hydroxy-2-methyl-7-(methylsulfonyl)-2,3-dihydro-1H-inden-4-yl)oxy)benzonitrile]	
6.82	6.20	CS(=O)(=O)c1ccc(Oc2cc(F)cc(C#N)c2)c2c1[C@H](O)C(F)(F)[C@@H]2O [Compound 76, 3-[(1S,3R)-2,2-difluoro-1,3-dihydroxy-7-methylsulfonyl-indan-4-yl]oxy-5-fluoro-benzonitrile]	
5.74	5.97	CS(=O)(=O)c1ccc(Oc2cncc(C#N)c2)c2c1[C@H](O)[C@H](F)C2 [Compound 77, 5-(((1S,2R)-2-fluoro-1-hydroxy-7-(methylsulfonyl)-2,3-dihydro-1H-inden-4-yl)oxy)nicotinonitrile]	
7.27	6.32	CS(=O)(=O)c1ccc(Oc2cncc(Br)c2)c2c1[C@H](O)C(F)(F)C2 [Compound 88, (S)-4-((5-Bromopyridin-3-yl)oxy)-2,2-difluoro-7-(methylsulfonyl)-2,3-dihydro-1H-inden-1-ol]	
7.14	6.65	N#Cc1cc(F)cc(Oc2ccc(S(N)(=O)=O)c3c2C[C@@H](F)[C@H]3O)c1 [Compound 98, (2R,3S)-7-(3-cyano-5-fluoro-phenoxy)-2-fluoro-3-hydroxy-indane-4-sulfonamide]	
6.29	5.78	CS(=O)(=O)c1ccc(Oc2cc(F)cc(C#N)c2)c2c1[C@H](N)C(F)(F)[C@@H]2F [Compound 110]	
7.33	6.65	N#Cc1c(Oc2cc(F)cc(Cl)c2)ccc2c1[C@@H](O)CS2(=O)=O [Compound 112, (3R)-5-(3-chloro-5-fluoro-phenoxy)-3-hydroxy-1,1-dioxo-2,3-dihydrobenzothiophene-4-carbonitrile]	
6.70	5.43	NC1c2cc(Oc3cc(F)cc(Cl)c3)ccc2S(=O)(=O)C1(F)F (centres unmarked) [Compound 122, 3-Amino-5-(3-chloro-5-fluorophenoxy)-2,2-difluoro-2,3-dihydrobenzo[b]thiophene 1,1-dioxide]	
7.00	6.14	O=S1(=O)CC(O)c2c1ccc(Oc1cc(F)cc(Cl)c1)c2C(F)F (centres unmarked) [Compound 125, 5-(3-Chloro-5-fluorophenoxy)-4-(difluoromethyl)-3-hydroxy-2,3-dihydrobenzo[b]thiophene 1,1-dioxide]	
5.10	5.16	NC1CS(=O)(=O)c2ccc(Oc3cc(F)cc(Cl)c3)c(C(F)F)c21 (centres unmarked) [Compound 127, 3-Amino-5-(3-chloro-5-fluorophenoxy)-4-(difluoromethyl)-2,3-dihydrobenzo[b]thiophene 1,1-dioxide]	
7.11	6.14	O=S1(=O)CC(O)c2c1ccc(Oc1cc(F)cc(F)c1)c2C(F)F (centres unmarked) [Compound 134, 4-(Difluoromethyl)-5-(3,5-difluorophenoxy)-3-hydroxy-2,3-dihydrobenzo[b]thiophene 1,1-dioxide]	
